In the supplement of paper PMC10307832:

Columns and labels:
Assay in all cases: relative viability (nuclei count vs DMSO), 5 days (fraction); higher = more cells survive
[1] = compound: Nc1ccn([C@@H]2O[C@H](CO)[C@@H](O)C2(F)F)c(=O)n1 [Gemcitabine] + CC(=O)c1c(C)c2cnc(Nc3ccc(N4CCNCC4)cn3)nc2n(C2CCCC2)c1=O [Palbociclib] (partner 0.5 µM)
In short: (§1)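 Nuclei were stained with Hoechst during a one-step fixation (final 0.05% Triton X-100, 1% formaldehyde, 1 ug/ml Hoechst) carried out 5 days after dosing, then counted on 4× images. The cells, lung cancer lines in 1536-well plates, had been dosed by pin tool the day after seeding with one drug alone or a fixed anchor-drug dose plus five library-drug doses (not always all listed) in √10 steps. Relative viability is the nuclei count in treated wells divided by that in vehicle wells, and each value is the median of duplicate plates.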

Gemcitabine + OSI-027 = compound: Nc1ccn([C@@H]2O[C@H](CO)[C@@H](O)C2(F)F)c(=O)n1 [Gemcitabine] + COc1cccc2cc(-c3nc([C@H]4CC[C@H](C(=O)O)CC4)n4ncnc(N)c34)[nH]c12 [OSI-027] (partner 0.5 µM)
In short: as §1

Gemcitabine + Foretinib = compound: Nc1ccn([C@@H]2O[C@H](CO)[C@@H](O)C2(F)F)c(=O)n1 [Gemcitabine] + COc1cc2c(Oc3ccc(NC(=O)C4(C(=O)Nc5ccc(F)cc5)CC4)cc3F)ccnc2cc1OCCCN1CCOCC1 [Foretinib] (partner 0.25 µM)
In short: as §1

Gemcitabine = compound: Nc1ccn([C@@H]2O[C@H](CO)[C@@H](O)C2(F)F)c(=O)n1 [Gemcitabine]
In short: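 Lung cancer cell lines in 1536-well plates were exposed by pinning to five library-drug doses (not always all listed) √10 apart, following an overnight hold at 37 °C. MetaXpress counted Hoechst-stained nuclei from 4× images taken after 5 days without medium change. Viability is the median ratio of treated-well to vehicle-well nuclei across plates. Plates required control CV below 25% and at least one doubling.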

Row | Cell Line | relative viability ([1]; first compound 0.001 µM) | relative viability ([1]; first compound 0.003162 µM) | relative viability ([1]; first compound 0.01 µM) | relative viability ([1]; first compound 0.03162 µM) | relative viability ([1]; first compound 0.1 µM) | relative viability (Gemcitabine + OSI-027; first compound 0.001 µM) | relative viability (Gemcitabine + OSI-027; first compound 0.003162 µM) | relative viability (Gemcitabine + OSI-027; first compound 0.01 µM) | relative viability (Gemcitabine + OSI-027; first compound 0.03162 µM) | relative viability (Gemcitabine + OSI-027; first compound 0.1 µM) | relative viability (Gemcitabine + Foretinib; first compound 0.001 µM) | relative viability (Gemcitabine + Foretinib; first compound 0.003162 µM) | relative viability (Gemcitabine + Foretinib; first compound 0.01 µM) | relative viability (Gemcitabine + Foretinib; first compound 0.03162 µM) | relative viability (Gemcitabine + Foretinib; first compound 0.1 µM) | relative viability (Gemcitabine; 0.001 µM) | relative viability (Gemcitabine; 0.003162 µM) | relative viability (Gemcitabine; 0.01 µM) | relative viability (Gemcitabine; 0.03162 µM) | relative viability (Gemcitabine; 0.1 µM)
1 | 201T | 0.341 | 0.363 | 0.317 | 0.359 | 0.323 | 0.653 | 0.747 | 0.122 | 0.146 | 0.114 | 1.06 | 0.994 | 0.914 | 0.217 | 0.177 | 0.939 | 0.958 | 0.988 | 0.697 | 0.482
2 | A-427 | 0.552 | 0.492 | 0.421 | 0.326 | 0.235 | 0.401 | 0.338 | 0.148 | 0.17 | 0.113 | 1.09 | 0.948 | 0.598 | 0.181 | 0.155 | 0.96 | 0.867 | 0.584 | 0.293 | 0.143
3 | ABC-1 | – | 0.547 | 0.626 | 0.353 | 0.347 | 0.364 | – | 0.218 | 0.252 | 0.116 | 0.886 | – | 1.06 | 0.312 | 0.17 | 0.965 | 0.823 | 0.703 | 0.291 | 0.235
4 | BEN | 0.448 | 0.38 | 0.364 | 0.291 | 0.273 | 0.299 | 0.274 | 0.174 | 0.167 | 0.167 | 0.77 | 0.575 | 0.303 | 0.112 | 0.119 | 0.973 | 0.726 | 0.282 | 0.152 | 0.117
5 | CAL-12T | 0.628 | 0.48 | 0.292 | 0.161 | 0.16 | 0.645 | 0.47 | 0.451 | 0.152 | 0.13 | 1.11 | 1.03 | 0.982 | 0.707 | 0.182 | 1.04 | 0.935 | 0.643 | 0.206 | 0.14
6 | COR-L23 | 0.277 | 0.214 | 0.119 | 0.112 | 0.0964 | 0.955 | 0.627 | 0.264 | 0.0984 | 0.101 | 0.972 | 0.898 | 0.556 | 0.123 | 0.0959 | 0.992 | 0.941 | 0.701 | 0.117 | 0.0953
7 | COR-L 105 | 0.398 | 0.4 | 0.366 | 0.347 | 0.326 | 0.763 | 0.72 | 0.311 | 0.295 | 0.226 | 1.39 | 0.884 | 1.01 | 0.371 | 0.27 | 0.947 | 0.934 | 0.572 | 0.269 | 0.234
8 | Calu-6 | – | – | – | – | – | – | – | – | – | – | 0.847 | 0.566 | 0.403 | 0.0993 | 0.0677 | 0.975 | 0.649 | 0.33 | 0.147 | 0.129
9 | ChaGo-K-1 | 0.99 | 0.803 | 0.31 | 0.186 | 0.167 | 0.516 | 0.458 | 0.212 | 0.185 | 0.164 | 0.901 | 0.815 | 0.428 | 0.213 | 0.191 | 1.07 | 0.871 | 0.538 | 0.265 | 0.219
10 | EBC-1 | – | – | – | – | – | – | – | – | – | – | 0.0943 | 0.0886 | 0.0845 | 0.0844 | 0.0813 | 0.791 | 0.235 | 0.174 | 0.138 | 0.142
11 | EKVX | 0.412 | 0.284 | 0.237 | 0.168 | 0.154 | 0.773 | 0.719 | 0.391 | 0.147 | 0.122 | 0.788 | 0.457 | 0.173 | 0.246 | 0.113 | 0.943 | 0.766 | 0.461 | 0.201 | 0.139
12 | EMC-BAC-2 | 0.529 | 0.515 | 0.46 | 0.256 | 0.25 | 0.422 | 0.423 | 0.212 | 0.214 | 0.223 | 1.03 | 1.03 | 0.885 | 0.201 | 0.201 | 0.89 | 0.996 | 0.642 | 0.267 | 0.226
13 | EPLC-272H | 0.384 | 0.323 | 0.275 | 0.244 | 0.21 | 0.334 | 0.298 | 0.159 | 0.136 | 0.105 | 0.636 | 0.815 | 0.416 | 0.075 | 0.0466 | 1.05 | 1.01 | 0.591 | 0.113 | 0.0839
14 | H3255 | 0.348 | 0.347 | 0.286 | 0.285 | 0.264 | 0.353 | 0.366 | 0.394 | 0.26 | 0.248 | 1.04 | 0.666 | 0.782 | 0.273 | 0.229 | 0.981 | 0.781 | 0.631 | 0.297 | 0.198
15 | HARA | 0.234 | 0.283 | 0.219 | 0.179 | 0.139 | 0.734 | 0.68 | 0.388 | 0.175 | 0.0508 | 0.965 | 0.894 | 0.853 | 0.119 | 0.0735 | 1.03 | 0.984 | 0.971 | 0.469 | 0.118
16 | HCC-15 | 0.811 | 0.722 | 0.634 | 0.327 | 0.0961 | 0.773 | 0.624 | 0.578 | 0.142 | 0.0829 | 1.12 | 1.07 | 1.01 | 0.152 | 0.0815 | 1.04 | 1.06 | 0.941 | 0.468 | 0.108
17 | HCC-44 | 0.934 | 0.908 | 0.938 | 0.717 | 0.447 | 0.562 | 0.352 | 0.357 | 0.178 | 0.155 | – | – | – | – | – | 0.99 | 0.815 | 0.935 | 0.527 | 0.264
